# Columns and labels:
# [1] = molecular target: T1, ArthβDG (Arthrobacter sp. 32cB, UniProt A0A023UGN9); assay: hydrolysis in crystal, product seen by X-ray; format: biochemical; conditions: crystal soaked 1 min
# T1 construct: recombinant, pBAD/Myc-His A vector (pBAD-Bgal32cB), E. coli LMG 194 host; ion exchange and size exclusion; five-domain protein, 110 kDa; functional dimer; GH2 family; catalytic residues E441 and E517
# [2] = molecular target: ArthβDG_E441Q mutein (β-D-galactosidase from Arthrobacter sp. 32cB, E441Q) (Arthrobacter sp. 32cB); assay: crystal structure; crystals grown in 25–45% Tacsimate, pH 6.0–8.0, seeded; space group P3121, one protein monomer in the asymmetric unit; dimer shown in Figure 2
# [3] = molecular target: T1, ArthβDG; assay: hydrolysis in crystal, blue coloration; format: biochemical; conditions: 3 to 20 molar excess; blue within 3 min; galactose found in the structure
# T1 sequence (A0A023UGN9 1-1010): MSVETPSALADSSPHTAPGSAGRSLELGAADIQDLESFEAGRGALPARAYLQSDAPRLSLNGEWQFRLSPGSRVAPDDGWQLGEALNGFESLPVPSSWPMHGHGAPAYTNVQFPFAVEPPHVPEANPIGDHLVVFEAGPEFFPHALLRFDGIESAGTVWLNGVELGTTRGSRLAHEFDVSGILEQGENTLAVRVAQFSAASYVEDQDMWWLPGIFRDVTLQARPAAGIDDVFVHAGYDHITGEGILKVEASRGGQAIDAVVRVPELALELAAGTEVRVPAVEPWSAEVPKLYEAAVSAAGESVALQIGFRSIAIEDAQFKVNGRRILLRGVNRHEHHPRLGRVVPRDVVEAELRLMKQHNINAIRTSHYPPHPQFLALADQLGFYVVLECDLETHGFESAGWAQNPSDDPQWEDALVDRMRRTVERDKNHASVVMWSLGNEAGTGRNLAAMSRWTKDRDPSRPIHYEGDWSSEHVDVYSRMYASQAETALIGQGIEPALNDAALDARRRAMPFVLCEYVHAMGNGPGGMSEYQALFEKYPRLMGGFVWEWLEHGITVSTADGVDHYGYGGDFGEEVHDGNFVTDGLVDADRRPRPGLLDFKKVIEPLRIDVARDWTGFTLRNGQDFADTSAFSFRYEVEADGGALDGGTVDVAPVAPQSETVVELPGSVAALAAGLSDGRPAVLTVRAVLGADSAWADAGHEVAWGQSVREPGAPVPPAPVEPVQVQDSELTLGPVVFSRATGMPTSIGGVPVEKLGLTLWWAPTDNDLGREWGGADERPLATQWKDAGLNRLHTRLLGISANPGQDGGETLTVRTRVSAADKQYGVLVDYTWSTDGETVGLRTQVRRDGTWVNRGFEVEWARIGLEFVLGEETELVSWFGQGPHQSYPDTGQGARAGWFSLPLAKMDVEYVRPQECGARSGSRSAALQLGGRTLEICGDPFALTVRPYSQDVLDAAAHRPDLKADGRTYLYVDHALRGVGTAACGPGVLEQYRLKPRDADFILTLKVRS
compound,measurement,setting,value
"OC[C@H]1O[C@@H](O[C@H]2[C@H](O)[C@@H](O)C(O)O[C@@H]2CO)[C@H](O)[C@@H](O)[C@H]1O (stereo partly drawn) [LAC, lactose]","hydrolysis in crystal, product seen by X-ray",[1],the active enzyme performed hydrolysis of lactose in crystal
"ArthβDG_E441Q mutein (β-D-galactosidase from Arthrobacter sp. 32cB, E441Q) (enzyme)",stoichiometry N,[2],2
"OC[C@H]1O[C@@H](Oc2c[nH]c3ccc(Br)c(Cl)c23)[C@H](O)[C@@H](O)[C@H]1O [X-gal, 5-bromo-4-chloro-3-indolyl-β-D-galactopyranoside]","hydrolysis in crystal, blue coloration",[3],the enzyme in the crystal was in its active form and performed hydrolysis of X-gal
